# In patent US9725442B2, “Heterocyclic derivative having PGD2 receptor antagonist activity” (Shionogi & Co., Ltd., priority 2011, dated 2017):
# Biological target: human ether-a-go-go related gene (hERG) channel (Homo sapiens (Human), UniProt Q12809)
# Assay: hERG test (IKr, whole cell patch clamp in HEK293 cells)
# Format: cell-based
# Settings: 1 μmol/L of the compound, HEK293 cells expressing hERG
# From the text: For the purpose of assessing risk of an electrocardiogram QT interval prolongation, effects on delayed rectifier K+ current (IKr), which plays an important role in the ventricular repolarization process of the compound of the present invention, was studied using HEK293 cells expressing human ether-a-go-go related gene (hERG) channel.
# After a cell was retained at a membrane potential of −80 mV by whole cell patch clamp method using an automated patch clamp system (PatchXpress 7000A, Axon Instruments Inc.) and given leakage potential at −50 mV, IKr induced by depolarization pulse stimulation at +40 mV for 2 seconds and, further, repolarization pulse stimulation at −50 mV for 2 seconds was recorded. After the generated current was stabilized, extracellular solution (NaCl: 135 mmol/L, KCl: 5.4 mmol/L, […]: 0.3 mmol/L, CaCl2.2H2O: 1.8 mmol/L, MgCl2.6H2O: 1 mmol/L, glucose: 10 mmol/L, HEPES (4-(2-hydroxyethyl)-1-piperazineethanesulfonic acid): 10 mmol/L, pH=7.4) in which a compound of the present invention had been dissolved at an objective concentration was applied to the cell under the room temperature condition for 10 minutes. From the recording IKr, an absolute value of the tail peak current was measured based on the current value at the resting membrane potential using an analysis software (DataXpress ver. 2, Molecular Devices Corporation).
# Chain of human ether-a-go-go related gene (hERG) channel (Q12809 whole entry): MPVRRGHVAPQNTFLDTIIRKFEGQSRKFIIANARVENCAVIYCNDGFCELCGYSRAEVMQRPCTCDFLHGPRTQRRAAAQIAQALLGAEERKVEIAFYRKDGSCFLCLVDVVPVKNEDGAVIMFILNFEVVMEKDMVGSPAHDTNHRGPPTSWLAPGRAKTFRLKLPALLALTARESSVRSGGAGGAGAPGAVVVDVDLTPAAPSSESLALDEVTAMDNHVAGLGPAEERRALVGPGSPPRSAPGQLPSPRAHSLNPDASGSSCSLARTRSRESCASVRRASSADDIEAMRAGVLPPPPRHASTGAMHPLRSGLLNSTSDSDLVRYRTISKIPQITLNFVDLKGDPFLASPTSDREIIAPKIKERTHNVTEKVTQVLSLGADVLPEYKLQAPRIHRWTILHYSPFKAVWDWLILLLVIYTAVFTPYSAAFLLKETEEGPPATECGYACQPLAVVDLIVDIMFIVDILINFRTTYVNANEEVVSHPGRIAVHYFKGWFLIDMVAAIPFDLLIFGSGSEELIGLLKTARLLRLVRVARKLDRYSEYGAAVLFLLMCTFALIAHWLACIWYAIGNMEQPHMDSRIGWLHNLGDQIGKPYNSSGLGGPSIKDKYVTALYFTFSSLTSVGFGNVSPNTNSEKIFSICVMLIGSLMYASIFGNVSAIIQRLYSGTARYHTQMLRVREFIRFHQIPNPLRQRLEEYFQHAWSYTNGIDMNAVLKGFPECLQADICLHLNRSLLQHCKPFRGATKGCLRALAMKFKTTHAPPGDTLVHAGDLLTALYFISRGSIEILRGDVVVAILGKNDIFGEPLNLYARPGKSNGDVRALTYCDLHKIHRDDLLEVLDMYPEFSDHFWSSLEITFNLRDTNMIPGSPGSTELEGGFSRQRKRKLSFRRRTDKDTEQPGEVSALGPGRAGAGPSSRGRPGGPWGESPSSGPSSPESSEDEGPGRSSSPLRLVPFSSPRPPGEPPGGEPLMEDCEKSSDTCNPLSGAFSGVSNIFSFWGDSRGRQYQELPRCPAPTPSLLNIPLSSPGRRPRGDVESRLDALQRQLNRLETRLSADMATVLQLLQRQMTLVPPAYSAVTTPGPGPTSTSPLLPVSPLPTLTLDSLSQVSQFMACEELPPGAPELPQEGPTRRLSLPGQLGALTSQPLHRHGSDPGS
structure (smiles),measurement,value
CC(C)Oc1ccc(S(=O)(=O)N2C[C@@H](C)[C@@H](n3nc(CC(=O)O)c4ccc(F)cc43)C2)cc1 [Compound I-37],% inhibition of IKr tail peak current,7.1%
